Test results reported in patent US5024839A, “Dactylocycline A and dactylocycline B” (E. R. Squibb & Sons, Inc., priority 1987, dated 1991).
Converted amounts (≈) assume the structure as drawn.

Key:
Assay type in all cases: cell-based
[1] = system: Staphylococcus aureus SGB 42; assay: MIC (agar dilution, K-10 agar)
Protocol: (§1) The following methodology was used to determine the minimum inhibitory concentration (hereinafter referred to as MIC) of the compounds of this invention. The test organisms were grown in 20 ml of Antibiotic Assay Broth (Difco) by inoculating the broth (in tubes) with a loopful of the organism from a BHI (Difco) agar slant. The inoculated tubes were incubated at 37° C. for 18 to 24 hours. These cultures are assumed to contain 10^9 colony forming units (CFU) per ml. The cultures were diluted 1:100 to give a final inoculum level of 10^7 CFU; dilutions were made with Yeast Beef Broth (Difco). The test compounds were dissolved in an appropriate diluent at a concentration of 1,000 μg/ml. Two-fold dilutions were made in Yeast Beef Broth (Difco) resulting in a range from 1000 μg/ml to 0.5 μg/ml. A 1.5 ml portion of each dilution was placed into individual petri dishes to which 13.5 ml of K-10 agar was added. The composition of K-10 agar is:
(§2) The final drug concentration in the agar ranged from 100 μg/ml to 0.05 μg/ml. Organism growth control plates containing agar only were prepared and inoculated before and after the test plates. The organisms were applied to agar surface of each plate with a Denly Multipoint Inoculator, which delivers approximately 10^4 CFU on the agar surface.
(§3) The plates were incubated at 37° C. for 18 hours and the MICs determined. The MIC is the lowest concentration of compound inhibiting growth of the organism.
(§4) The test organisms chosen for this study are pairs of tetracycline-sensitive and tetracycline-resistant strains.

[2] = system: Staphylococcus aureus SC2399; assay: MIC (agar dilution, K-10 agar)
Protocol: as §1, §2, §3, §4

[3] = system: Staphylococcus aureus SC10016; assay: MIC (agar dilution, K-10 agar)
Protocol: as §1, §2, §3, §4

[4] = system: Streptococcus faecalis SC9776; assay: MIC (agar dilution, K-10 agar)
Protocol: as §1, §2, §3, §4

[5] = system: Staphylococcus epidermidis SC9087; assay: MIC (agar dilution, K-10 agar)
Protocol: as §1, §2, §3, §4

[6] = system: Staphylococcus aureus SGB 45; assay: MIC (agar dilution, K-10 agar)
Protocol: as §1, §2, §3, §4

[7] = system: Streptococcus faecalis SC9011; assay: MIC (agar dilution, K-10 agar)
Protocol: as §1, §2, §3, §4

[8] = system: Staphylococcus epidermidis SC9052; assay: MIC (agar dilution, K-10 agar)
Protocol: as §1, §2, §3, §4

[9] = system: gram-positive bacteria, including tetracycline-resistant bacteria; assay: Activity against gram-positive bacteria
Protocol: as §1, §2
The plates were incubated at 37° C. for 18 hours and the MICs determined. […]

[10] = Staphylococcus aureus SGB 42, K-10 agar, approximately 10^4 CFU, 37° C., 18 hours
[11] = Staphylococcus aureus SC2399, K-10 agar, approximately 10^4 CFU, 37° C., 18 hours
[12] = Staphylococcus aureus SC10016, K-10 agar, approximately 10^4 CFU, 37° C., 18 hours
[13] = Streptococcus faecalis SC9776, K-10 agar, approximately 10^4 CFU, 37° C., 18 hours
[14] = Staphylococcus epidermidis SC9087, K-10 agar, approximately 10^4 CFU, 37° C., 18 hours
[15] = Staphylococcus aureus SGB 45, K-10 agar, approximately 10^4 CFU, 37° C., 18 hours
[16] = Streptococcus faecalis SC9011, K-10 agar, approximately 10^4 CFU, 37° C., 18 hours
[17] = Staphylococcus epidermidis SC9052, K-10 agar, approximately 10^4 CFU, 37° C., 18 hours

Row | SMILES | MIC ([1]; Staphylococcus aureus, SGB42, 18 h) | MIC ([2]; Staphylococcus aureus, SC2399, 18 h) | MIC ([3]; Staphylococcus aureus, SC10016, 18 h) | MIC ([4]; Enterococcus faecalis, SC9776, 18 h) | MIC ([5]; Staphylococcus epidermidis, SC9087, 18 h) | MIC ([6]; Staphylococcus aureus, SGB45, 18 h) | MIC ([7]; Enterococcus faecalis, SC9011, 18 h) | MIC ([8]; Staphylococcus epidermidis, SC9052, 18 h) | activity against gram-positive bacteria [9] | MIC [1, 10] | MIC [2, 11] | MIC [3, 12] | MIC [4, 13] | MIC [5, 14] | MIC [6, 15] | MIC [7, 16] | MIC [8, 17]
1 | CN(C)[C@@H]1C(O)=C(C(N)=O)C(=O)[C@@]2(O)C(O)=C3C(=O)c4c(O)cccc4[C@@](C)(O)[C@H]3C[C@@H]12 [Tetracycline, reference compound] | 0.2 µg/mL (≈ 0.45 µM) | 0.4 µg/mL (≈ 0.9 µM) | 100 µg/mL (≈ 225 µM) | > 100 µg/mL | 50 µg/mL (≈ 113 µM) | 100 µg/mL (≈ 225 µM) | 1.6 µg/mL (≈ 3.6 µM) | 0.8 µg/mL (≈ 1.8 µM) |  |  |  |  |  |  |  |  | 
2 | COc1cc(O)c2c(c1Cl)[C@](C)(O[C@H]1C[C@](C)(NO)[C@@H](OC)[C@H](C)O1)[C@H]1C[C@@]3(O)[C@H](N(C)C)C(=O)C(C(N)=O)=C(O)[C@@]3(O)C(=O)C1=C2O [Dactylocycline A] |  |  |  |  |  |  |  |  | active against gram-positive bacteria, including tetracycline-resistant bacteria | 1.6 µg/mL (≈ 2.29 µM) | 1.6 µg/mL (≈ 2.29 µM) | 6.3 µg/mL (≈ 9.02 µM) | 25 µg/mL (≈ 35.8 µM) | 3.1 µg/mL (≈ 4.44 µM) | 3.1 µg/mL (≈ 4.44 µM) | 25 µg/mL (≈ 35.8 µM) | 6.3 µg/mL (≈ 9.02 µM)
3 | COc1cc(O)c2c(c1Cl)C(C)(OC1CC(C)([N+](=O)[O-])C(OC)C(C)O1)C1CC3(O)C(N(C)C)C(=O)C(C(N)=O)=C(O)C3(O)C(=O)C1=C2O (centres unmarked) [Dactylocycline B] |  |  |  |  |  |  |  |  | active against gram-positive bacteria, including tetracycline-resistant bacteria | 3.1 µg/mL (≈ 4.35 µM) | 6.3 µg/mL (≈ 8.85 µM) | 3.1 µg/mL (≈ 4.35 µM) | 6.3 µg/mL (≈ 8.85 µM) | 3.1 µg/mL (≈ 4.35 µM) | 3.1 µg/mL (≈ 4.35 µM) | 6.3 µg/mL (≈ 8.85 µM) | 3.1 µg/mL (≈ 4.35 µM)
